# Tested on: 5-hydroxytryptamineor histamine induced bronchoconstriction
# Experiment: Inhibition of 5-hydroxytryptamine or histamine induced bronchoconstriction (Konzett-Rossler preparation)
# Type: in vivo
# Conditions: Cavia porcellus, iv, anaesthetised artificially respired guinea-pig
# Source text: The compounds are examined for their ability to inhibit 5-hydroxytryptamineor histamine induced bronchoconstriction in the anaesthetised artificially respired guinea-pig (Konzett-Rossler preparation).
# The ED50 values (μg/kg, i.v.) for inhibition of bronchoconstriction for a variety of the triazolidine-3,5-diones are given in Table 7.
row,SMILES,ED50 [µg/kg]
1,COC(=O)CCCCCCn1c(=O)n(C)c(=O)n1CCC(C)(O)C1CCCCC1 (stereo not shown) [Compound 33],2.6
2,"CCCCCCC(C)(O)CCn1c(=O)n(C)c(=O)n1CC=CCCCC(=O)OC (stereo not shown) [Compound 43, 1-(6'-methoxycarbonyl-n-hex-2-enyl)-2-(3""-hydroxy-3""-methyl-n-nonyl)-4-methyl-1,2,4-triazolidine-3,5-dione]",1.9
3,COC(=O)CCCCCCn1c(=O)n(C)c(=O)n1CCC(C)(O)Cc1ccccc1 (stereo not shown) [Compound 31],37
4,"CCCCCC(O)CCn1c(=O)n(C)c(=O)n1CCCCCCC(=O)OCC (stereo not shown) [Compound 21, 1-(6'-Ethoxycarbonyl-n-hexyl)-2-(3""-hydroxy-n-octyl)-4-methyl-1,2,4-triazolidine-3,5-dione]",3.4
5,"CCCCCC(O)CCn1c(=O)n(C)c(=O)n1CCCCCCC(=O)O (stereo not shown) [Compound 24, 1-(6'-Carboxy-n-hexyl)-2-(3""-hydroxy-n-octyl)-4-methyl-1,2,4-triazolidine-3,5-dione]",4
6,"CCCCCCC(C)(O)CCn1c(=O)n(C)c(=O)n1CCCCCCC(=O)OC (stereo not shown) [Compound 29, 1-(6'-methoxycarbonyl-n-hexyl-)-2-(3""-hydroxy-3""-methyl-n-nonyl)-4-methyl-1,2,4-triazolidine-3,5-dione]",2.6
7,CCCCC(C)C(C)(O)CCn1c(=O)n(C)c(=O)n1CCCCCCC(=O)OC (stereo not shown) [Compound 32],0.74

# Reference: patent US4460595A, “Using urazole analogs of prostaglandins for bronchodilation” (Beecham Group Limited, priority 1976, dated 1984)
